Experimental data reported in patent US20060069124A1 (priority 2004, published 2006).

What was measured:
neutrophils = test: Chemoattractant-induced chemotaxis of neutrophils; type: cell-based; details: C5a 10^−7 M positive control; FIG. 1
human eosinophils [1] = test: Chemoattractant-induced migration of eosinophils; type: cell-based; details: for migration of human eosinophils induced by chemoattractant: C5a 10^−7 M positive control, eotaxin 50 nM on untreated eosinophils, FIG. 1, FIG. 3
Method: Eosinophil Isolation: Eosinophils were purified from the peripheral blood of allergic donors (Boehme, et al. J. Immunol. 163:1611 (1999)).
(§1) Culture medium alone or medium containing 5-HT (100 nM) or eotaxin (50 nM) was added to the lower chamber. In certain experiments 5-HT was added to only upper or both upper and lower chambers and incubated at 37° C. for 4 h after which the chambers were removed and the number of migrated cells was quantitated and expressed as a % of total cells added to the well.

OVA-challenged mice [2] = test: Eosinophil counts in BAL fluid in murine model of allergic airway inflammation; type: in vivo, BALB/c mice; details: 0.5 mg/kg body weight i.p.; versus OVA-challenged mice without compound; FIG. 7
Method: Murine model of allergic airway inflammation: Pulmonary eosinophilia was induced in female BALB/c mice. In brief, mice were sensitized by two i.p. injections with 50 μg ovalbumin (OVA) in 200 μl alum (Pierce). Non-sensitized mice received 200 μl of alum alone. […] Fifteen minutes after injection of the inhibitor, mice were exposed to three inhalations (30 min each) of aerosolized OVA (10 mg/ml in 0.9% sterile saline) at 1 h intervals. Non-sensitized mice received an i.p. injection of vehicle and aerosol challenge of saline only. One hour after the last aero-allergen challenge, mice were assessed for airway hyperreactivity/responsiveness (AHR) as described below and subsequently sacrificed and processed for BAL fluid collection to determine eosinophil counts (Broide, et al. Am. J. Respir. Cell Mol. Biol. 18:218 (1998)). […] BALB/c mice were immunized intraperitoneally (i.p.) with alum alone (control), 50 μg OVA in alum and boosted 12 days later with an additional dose of OVA (50 μg). […] Fifteen minutes later, mice were challenged with either nebulized OVA (10 mg/ml) or PBS (challenge control) for 30 min. […] Three hours after the last challenge, AHR was measured in unrestrained mice using BUXCO plethysmography. […] The percentage of the total cells that were eosinophils was quantitated. […] No eosinophils were detected (n.d.) in the BAL fluid of control mice.

human eosinophils [3] = test: Transwell chamber chemotaxis assay: inhibition of 5-HT-induced eosinophil chemotaxis; type: cell-based; details: 5-HT 100 nM
Method: as §1, with “Eosinophil Isolation: Eosinophils were purified from the peripheral blood of allergic donors (Boehme, et al. J. Immunol. 163:1611 (1999)). […] Culture” for “Culture”, “well. […] Neuropsychopharmacology 15:116 (1996)), on 5-HT mediated eosinophil chemotaxis was investigated in vitro (FIG. 3).” for “well.”

[4] = system: muscarinic cholinergic receptors; details: cited from earlier work
5HT1 receptors = details: cited from earlier work
OVA-challenged mice [5] = test: AHR to methacholine in murine model of allergic airway inflammation; type: in vivo, BALB/c mice; details: 0.5 mg/kg body weight i.p., 15 min before OVA aerosol challenge; versus OVA-challenged mice without antagonist; FIG. 6
Method: Murine model of allergic airway inflammation: Pulmonary eosinophilia was induced in female BALB/c mice. In brief, mice were sensitized by two i.p. injections with 50 μg ovalbumin (OVA) in 200 μl alum (Pierce). Non-sensitized mice received 200 μl of alum alone. […] Fifteen minutes after injection of the inhibitor, mice were exposed to three inhalations (30 min each) of aerosolized OVA (10 mg/ml in 0.9% sterile saline) at 1 h intervals. Non-sensitized mice received an i.p. injection of vehicle and aerosol challenge of saline only. One hour after the last aero-allergen challenge, mice were assessed for airway hyperreactivity/responsiveness (AHR) as described below and subsequently sacrificed and processed for BAL fluid collection to determine eosinophil counts (Broide, et al. Am. J. Respir. Cell Mol. Biol. 18:218 (1998)). Determination of AHR to methacholine: AHR was assessed after completion of the final OVA inhalation challenges, immediately before the mice were sacrificed using a single chamber whole body plethysmograph obtained from Buxco (Troy, N.Y.), as previously described (Broide, et al. Am. J. Physiol. Lung Cell Mol Physiol. 282:[…] (2002)). In this system, an unrestrained, spontaneously breathing mouse is placed into the main chamber of the plethysmograph, and pressure differences between this chamber and a reference chamber are recorded. […]

human eosinophils [6] = test: Transwell chamber chemotaxis assay: eotaxin-induced eosinophil migration; type: cell-based; details: MDL-100,907 20 μM; eotaxin 50 nM; FIG. 3
Method: as §1, with “Eosinophil Isolation: Eosinophils were purified from the peripheral blood of allergic donors (Boehme, et al. J. Immunol. 163:1611 (1999)). […] Culture” for “Culture”, “well. […] Neuropsychopharmacology 15:116 (1996)), on 5-HT mediated eosinophil chemotaxis was investigated in vitro (FIG. 3).” for “well.”

dopamine D-2 receptors = dopamine D-2 receptors (Homo sapiens, UniProt P14416); details: cited from earlier work
Sequence of dopamine D-2 receptors (P14416 whole entry): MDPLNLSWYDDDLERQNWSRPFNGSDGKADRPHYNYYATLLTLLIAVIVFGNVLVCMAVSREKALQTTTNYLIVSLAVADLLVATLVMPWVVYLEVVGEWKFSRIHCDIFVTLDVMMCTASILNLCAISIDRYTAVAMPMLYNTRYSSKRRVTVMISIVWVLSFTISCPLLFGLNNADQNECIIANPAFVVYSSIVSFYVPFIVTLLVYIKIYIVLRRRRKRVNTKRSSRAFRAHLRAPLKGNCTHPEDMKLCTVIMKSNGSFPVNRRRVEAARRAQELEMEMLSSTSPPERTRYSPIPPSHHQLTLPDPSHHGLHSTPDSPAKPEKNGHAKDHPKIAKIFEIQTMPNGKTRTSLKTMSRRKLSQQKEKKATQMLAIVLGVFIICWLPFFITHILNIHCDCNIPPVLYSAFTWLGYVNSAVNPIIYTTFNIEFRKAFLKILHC

[7] = system: adrenergic alpha-1 receptors; details: cited from earlier work

## NCCc1c[nH]c2ccc(O)cc12 [5-HT, Serotonin]
neutrophils
  chemotaxis of neutrophils induced by chemoattractant: did not induce chemotaxis of neutrophils
Human eosinophils [1]; 5-HT alone, dose-dependent
  concentration at which induced eosinophil migration was maximal: 10^−6 molar (M)
Human eosinophils [1]; 5-HT alone
  migration of human eosinophils induced by chemoattractant: induce migration of human eosinophils in a dose-dependent manner
Human eosinophils [1]; 5-HT in upper or both chambers, FIG. 2
  nature of induced migration (chemotactic or chemokinetic): directed chemotactic response and not chemokinetic

## COc1cccc([C@H](O)C2CCN(CCc3ccc(F)cc3)CC2)c1OC [MDL-100,907, R-(+)-α-(2,3-dimethoxyphenyl)-1-[2-(4-fluorophenyl)ethyl]-4-piperidine methanol]
OVA-challenged mice [2]
  number of eosinophils present in the BAL fluid: inhibited the number of eosinophils
Human eosinophils [3]; MDL-100,907 20 μM, versus untreated eosinophils, FIG. 3
  chemotactic response to 5-HT: significantly reduced chemotactic response
Human eosinophils [3]; all ranges from 0.1 μM to 100 μM, FIG. 5
  inhibition of eosinophil chemotaxis to 5-HT: Robust inhibition of eosinophil chemotaxis
[4]
  activity at muscarinic cholinergic receptors: little detectable activity
5HT1 receptors
  activity at 5HT1 receptors: little detectable activity
OVA-challenged mice [5]
  AHR (airway hyperresponsiveness), BUXCO plethysmography: markedly reduced AHR
Human eosinophils [6]
  migratory response to eotaxin of treated eosinophils: robust migratory response
Dopamine D-2 receptors
  activity at dopamine D-2 receptors: little detectable activity
[7]
  activity at adrenergic alpha-1 receptors: little detectable activity

## eotaxin: chemokine, eosinophil chemoattractant
Human eosinophils [1]; 5-HT alone
  migration of human eosinophils induced by chemoattractant: robust migratory response

B1: C5a: positive control chemoattractant for eosinophils and neutrophils (protein, UniProt P01031 678-751, looked up)
C5a anaphylatoxin: TLQKKIEEIAAKYKHSVVKKCCYDGACVNNDETCEQRAARISLGPRCIKAFTECCVVASQLRANISHKDMQLGR
modifications: C5a anaphylatoxin
notes: positive control chemoattractant for eosinophils and neutrophils
neutrophils
  chemotaxis of neutrophils induced by chemoattractant: induce migration of both eosinophils and neutrophils
Human eosinophils [1]; 5-HT alone
  migration of human eosinophils induced by chemoattractant: induce migration of both eosinophils and neutrophils
